Test results: publication PMC7708037, “Targeting OGG1 arrests cancer cell proliferation by inducing replication stress” (Nucleic Acids Research, 2020)

How the values were obtained:
A3 cells [1] = assay: Annexin V-staining (apoptosis); format: cell-based, human; conditions: 72 h
Protocol: The annexin V staining experiment was performed using BD Pharmingen FITC Annexin V Apoptosis Detection Kit I (cat.no 556547) according to the protocol given in the kit. Cells were washed with ice-cold PBS and then washed with 1X Annexin buffer diluted in ice-cold PBS. To the washed pellet of cells, PI and FITC Annexin V dye was added and incubated at room temperature in dark for 15 mins. After the incubation, 400 µl of annexin buffer was added and run in Navios flow cytometer (Beckman Coulter) to detect the apoptosis with blue laser(488 nm, filter 525/40 nm) and dead cells with blue laser(488 nm, filter 620/30 nm). Kaluza Flow Analysis (Beckman Coulter) was used for data analysis.
Figure 4. Anticancer properties overlap between OGG1 loss and OGG1 inhibitors. (A) Viability of T-cell acute […] leukemia cell lines treated for 5 days with the indicated doses TH5487. Data are average ±SD of independent experiments (A3, n = 5; Jurkat, n = 3; MOLT-4, n = 4; CCRF-CEM, n = 3). (B) Relative cell numbers and (C) viability (%) for A3 cells treated for 5 days with 10 μM TH5487. Data are average ±SD of six replicates from three independent experiments. […] Statistical significance was determined using unpaired, two-sided t-tests (*P < 0.05, **P < 0.01, ***P < 0.001, ****P < 0.0001, ns, non-significant).

[2] = test system: peripheral blood mononuclear cells (PBMCs); assay: PBMC proliferation / tolerance; format: cell-based
Protocol: Peripheral blood mononuclear Cells (PBMC) were isolated from peripheral whole blood from controls using Histopaque®-1077 (Sigma-Aldrich, San Luis, MO, USA) following the manufacturer's instructions. Briefly, peripheral blood was collected in heparin and diluted with equal amount of PBS. Next, blood was centrifuged with Histopaque®-1077 at 400 × g for 30 min at room temperature and the PBMC layer was recovered. All steps were processed within 4 h after blood extraction.
PMBCs and CD34- fraction (CB) were cultured in the presence of PHA-L (Sigma-Aldrich, ref: 11249738001) or Dynabeads® Human T-Activator CD3/CD28 (Thermofisher scientific, ref: 11131D) for the activation and expansion of human T cells according to the manufacturer's instructions. […]
experiments (Supplementary Table S1).
PBMCs from two donors were activated using Dynabeads and exposed to 10 µM TH5487 during 72 h […]
to follow cell numbers. […] CD3+ T-cells were activated with Dynabeads and treated with DMSO or TH5487 for 6 days, or 25 µM camptothecin for 24 h as a technical control. Survival was assessed by flow cytometry. Data are three technical replicates from one donor, representative of four individuals. Paired, two-sided T-tests were used to assess significance (ns, non-significant, ****, P<0.0001). I. to K. Gating strategy for identification of dead cells. CD3+ cells were stained with Annexin V and Sytox Blue. […]

A3 cells [3] = assay: Cell cycle distribution by flow cytometry; format: cell-based, human; conditions: 10 μM
Protocol: At the indicated time points, compound/dox treated cells were incubated in medium containing 10 μM 5-ethynyl-2′-deoxyuridine (EdU) (Thermo Fisher, A10044) for 20 min. Next, cells were fixed in cold 70% ethanol overnight. The azide alkyne Huisgen cycloaddition (‘Click reaction’) was carried out according to the Click-iT EdU Imaging Manual (Thermo Fisher) using various fluorescent dyes: Alexa Fluor® 488 azide (Thermo Fisher, A10266), Alexa Fluor® 647 azide (Thermo Fisher, A10277), or TAMRA azide (Thermo Fisher, T10182), depending on assay conditions. […] Data was analyzed using Kaluza® Flow Analysis Software (Beckman Coulter). […]
untreated parental HEK293T. […] Statistical significance was determined using Mann Witney test (**, P<0.01, ***, P<0.001 and ****, P<0.0001 , ns, non-significant).
Supplementary Fig. S6: 8 -oxodG levels and cell cycle distribution. […] The indicated shNT cells were treated with 250 ng/ml doxycycline for 0, 96, or 144 h, and the amount of genomic 8-oxodG was quantified with LC -MS/MS. […] Cells were treated with 10 µM TH5487 or an equivalent volume DMSO for the indicated times, and the cell cycle distribution was determined by flow cytometry. […] A3 shNT (grey), sh2 (blue), and sh3 (red), were treated with 250 ng/ml doxycycline for 48 –120 h, and the cell cycle distribution was determined with flow cytometry. […]

O=C(Nc1ccc(I)cc1)N1CCC(n2c(=O)[nH]c3c(Br)cccc32)CC1 [TH5487]
Apoptosis (Annexin V-propidium iodide) (A3 cells [1]; 20 μM): more substantial | Apoptosis (Annexin V-propidium iodide) (A3 cells [1]; 5 and 10 μM): slight but significant increase in apoptosis | Tolerance by resting and activated PBMCs ([2]; 10 μM, healthy donors): well tolerated | Proliferation of activated PBMCs ([2]; Dynabeads-activated PBMCs from two donors, 10 µM, 72 h): does not affect proliferation | Cell cycle distribution (A3 cells [3]): remained largely constant | Sub-G1 population (A3 cells [3]): accumulation in the sub-G1 population
